≈ marks a conversion by molar mass, not a printed value. Numbered stars: 1 amine (or outer) side, 2 acyl side, 3 side chain; on linkers, the order of the positions; unused ones are H or OH. Square brackets hold non-standard residues; d marks the D form. Peptide text beside a SMILES is read from it. ξ: configuration not given here. X1 = CC[C@H](C)[C@@H](C(=O)[*:2])N(O)[*:1]; ξPiz(1,6-dehydro) = O=C(O)C1CCC=NN1; ξN(OH)Ile(3ξ) = CCC(C)C(NO)C(=O)O; dNMeF = CN[C@H](Cc1ccccc1)C(=O)O; NMeF = CN[CH](Cc1ccccc1)C(=O)O; X2 = O=C(C1CCCNN1[*:1])[*:2]; Pip = O=C(O)[C@@H]1CCCCN1; dPip = O=C(O)[C@H]1CCCCN1
Key:
[1] = system: M. tuberculosis WT; type: cell-based, Mycobacterium tuberculosis
[2] = system: M. tuberculosis H37Rv-LP (ATCC 25618) expressing a red fluorescent protein; conditions: for MIC90: H37Rv
[3] = system: M. tuberculosis H37Rv-LP (ATCC 25618) expressing a red fluorescent protein; experiment: microbe, parasite or virus in culture; conditions: Mycobacterium tuberculosis

| Structure (SMILES) | MIC90 [2] [µM] | further results |
| --- | --- | --- |
| CC(C)CC1C(=O)N2NCCCC2C(=O)N2NCCCC2C(=O)N(C)C(Cc2ccccc2)C(=O)N2CCCC2C(=O)NC(Cc2ccccc2)C(=O)N1O (stereo not drawn) [Compound 1, cyclo[N-(Me)Phe-Pro-Phe-N-(OH)Leu-Piz-Piz]] | 2.3 ± 0.5 (≈ 1.75 µg/mL) | MIC99 [1]: 1.6 µM (≈ 1.21 µg/mL) |
| CCC(C)C1C(=O)N2NCCCC2C(=O)N2NCCCC2C(=O)N(C)C(Cc2ccccc2)C(=O)N2CCCC2C(=O)NC(Cc2ccccc2)C(=O)N1O (stereo not drawn) [Compound 2] (cyclo([ξN(OH)Ile(3ξ)][X2][X2][NMeF]PF); configuration not given here) | 2.8 ± 0.8 (≈ 2.12 µg/mL) |  |
| CC(C)CC1C(=O)N2NCCCC2C(=O)N2NCCCC2C(=O)N(C)C(Cc2ccccc2)C(=O)N2CCCC2C(=O)NC(C(C)C)C(=O)N1O (stereo not drawn) [Compound 3] | 8.9 ± 1.8 (≈ 6.33 µg/mL) | MIC99 [1]: 0.8 µM (≈ 0.569 µg/mL) |
| CCC(C)C1C(=O)N2CCCC2C(=O)NC(CC(C)C)C(=O)N(O)C(CC(C)C)C(=O)N2NCCCC2C(=O)N2NCCCC2C(=O)N1C (stereo not drawn) [Compound 4] | 7.3 ± 1.9 (≈ 5.04 µg/mL) |  |
| CC[C@H](C)[C@H]1C(=O)N2NCCC[C@@H]2C(=O)N2NCCC[C@H]2C(=O)N(C)[C@H](Cc2ccccc2)C(=O)N2CCC[C@H]2C(=O)N[C@H](Cc2ccccc2)C(=O)N1CC(C)=O [Compound 5] | 8.2 ± 1.2 (≈ 6.55 µg/mL) |  |
| CCC(C)C1NC(=O)C(Cc2ccccc2)NC(=O)C2CCCN2C(=O)C(Cc2ccccc2)N(C)C(=O)C2CCC=NN2C(=O)C2CCC=NN2C1=O (stereo not drawn) [Compound 7] (cyclo([ξPiz(1,6-dehydro)][ξPiz(1,6-dehydro)][NMeF]PFI); configuration not given here) | > 20 |  |
| CC[C@H](C)[C@H]1C(=O)N2CCCC[C@@H]2C(=O)N2CCCC[C@H]2C(=O)N(C)[C@H](Cc2ccccc2)C(=O)N2CCC[C@H]2C(=O)N[C@H](Cc2ccccc2)C(=O)N1O [Compound 15] (cyclo([dNMeF]P[dF][X1][dPip][Pip])) | > 20 | anti-tubercular activity (in words) [2]: loss of anti-tubercular activity |
| CCCC1C(=O)N2CCCC2C(=O)NC(CC(C)C)C(=O)N(O)C(CC(C)C)C(=O)N2NCCCC2C(=O)N2NCCCC2C(=O)N1C (stereo not drawn) [Compound 16] | > 20 |  |
| CO[C@H]1/C=C/O[C@@]2(C)Oc3c(C)c(O)c4c(O)c(c(/C=N/N5CCN(C)CC5)c(O)c4c3C2=O)NC(=O)/C(C)=C\C=C\[C@H](C)[C@H](O)[C@@H](C)[C@@H](O)[C@@H](C)[C@H](OC(C)=O)[C@@H]1C [Rifampicin] |  | MIC [3]: 0.0077 µM (≈ 0.00634 µg/mL) |

From article PMC6022709 (BMC Research Notes, 2018)
